What was measured:
Assay type in all cases: in vivo
[1] = test system: transgenic wild-type (WT) and GPR119 knock-out (KO) mice; experiment: Effect on circulating GLP-1 and GIP in wild-type and GPR119 knock-out mice; conditions: 30 mg/kg oral gavage; for incretin hormone levels (total GLP-1 and GIP): 60 min after dosing
Description: 17 weeks old male transgenic wild-type (WT) and GPR119 knock-out (KO) mice (Charles River Laboratories, USA) were fasted overnight then randomly distributed into two treatment groups for each genotype with n=8 and n=10 animals per treatment group for KO and WT mice respectively. Animals received either vehicle (0.5% HPMC/0.1% Tween80) or a GPR119 agonist (Example 1) at a dose of 30 mg/kg (10 mL/kg), administered by oral gavage. Sixty minutes after the oral gavage the mice were anesthetized using isofluorane and a blood sample was collected by cardiac puncture, before sacrificing the animal by cervical dislocation. Blood samples were treated as described above for determination of incretin hormone levels. Plasma glucose levels were measured using an Olympus AU640 analyzer (Olympus America Inc, Melville, N.Y.), and insulin levels an electrochemoluminescence assay (Bioveris, Gaithersburg Md.).
Data is represented as box plots summarizing the distribution of data for each treatment group, as described above. Horizontal lines represent the mean data. FIG. 3 and FIG. 4 show total GLP-1 and GIP levels measured in circulation following administration of vehicle or 30 mg/kg GPR119 agonist (Example 1) in WT and KO mice.

[2] = test system: transgenic wild type (WT) and GPR119 knock-out (KO) mice; experiment: Oral glucose tolerance in wild type and GPR119 knockout mice; conditions: 2 g/kg dextrose oral 1 h after dosing
Description: Male transgenic wild type (WT) and GPR119 knock-out (KO) mice (Charles River Laboratories, USA), at an age of 12 weeks, were fasted overnight (approximately 15 hrs) then randomly grouped (n=8-10) to receive vehicle (0.5% HPMC/0.1% Tween80), a GPR119 agonist (30 mg/kg) or a positive control (10 mg/kg), the DPPIV inhibitor as described above. Vehicle or compounds were delivered orally by oral gavage at a volume of 10 mL/kg, and the tip of tail was nicked using a scalpel to allow whole blood glucose measurements. One hour after administration of vehicle or test compounds, dextrose was administered orally at 2 g/kg. Whole blood glucose levels were measured prior to, and 10, 20, 30, 45, 60, 90 and 120 min after the oral glucose load using a Glucometer (Freestyle, Therasense) from the tip of tail. At the end of the study the mice were sacrificed by cervical dislocation.
The glucose tolerance was calculated as the area under the glucose curve (AUC). Data is represented as box plots summarizing the distribution of data for each treatment group, as described above. Horizontal lines represent the mean data.

Male Sprague-Dawley rats = experiment: Glucose stimulated insulin secretion and glucose disposal in rats, intravenous glucose tolerance test; conditions: 10 mg/kg oral, 0.5 g/kg dextrose i.v. 90 min after dosing, vs vehicle
Description: Male Sprague-Dawley rats (Charles River Laboratories, USA) had catheters surgically implanted into the jugular vein and allowed to recover for one week. On the day of the experiment, food was removed in the morning and animals were randomly assigned to two treatment groups, vehicle (n=8) or GPR119 agonist (Example 1; n=9). In the afternoon, baseline blood samples were collected prior to, and 90 minutes following oral administration of either vehicle (0.5% HPMC/0.1% Tween80) or 10 mg/kg Example 1. The intravenous glucose tolerance test was initiated immediately after the 90 minute blood sample by intravenous infusion of 0.5 g/kg dextrose over 15-30 seconds into the jugular vein, Blood samples were collected from the jugular vein at 2, 5, 10, 15, and 30 min and treated as described for the hyperglycemic clamp. Serum was collected for analysis of glucose levels using an Olympus AU640 clinical chemistry analyzer (Olympus America Inc, Melville, N.Y.) and insulin levels by an electrochemoluminescence assay (Bioveris, Gaithersburg Md.). The rats were sacrificed at the end of the study by an overdose of Nembutal.
FIG. 14 and FIG. 15 show circulating plasma glucose and insulin concentrations at each time point throughout the intravenous glucose tolerance test. The data is represented as the average glucose and insulin levels±SEM for all animals in for the two treatment groups.

male C57BL/6 mice = experiment: Oral glucose tolerance in normal mice; conditions: fasted mice, Example 1 30 mg/kg, DPPIV inhibitor 10 mg/kg oral, 2 g/kg dextrose oral 1 h after dosing
Description: Nine weeks old male C57BL/6 mice (Taconic farms, USA) were fasted overnight and randomly assigned to three different treatment groups (n=9-10 per treatment arm) to receive vehicle (0.5% HPMC/0.1% Tween80), a GPR119 agonist (Example 1, 30 mg/kg) or a positive control (10 mg/kg), specifically a DPPIV inhibitor known to improve glucose tolerance in vivo by preventing degradation of the GLP-1 and GIP. Vehicle or compounds were delivered by oral gavage at a volume of 10 mL/kg, and the tip of tail was nicked using a scalpel to allow whole blood glucose measurements. One hour after administration of vehicle or test compounds, 2 g/kg of dextrose was administered by oral gavage. Whole blood glucose levels were determined from the abrasion at the tip of the tail at time points as indicated in FIG. 16 using a Glucometer (Freestyle, Therasense). At the end of the study the mice were sacrificed by cervical dislocation.

Structure (SMILES): CC(C)OC(=O)N1CCC(Oc2ncnc3c2CCN3c2ccc(S(C)(=O)=O)cc2F)CC1 [Example 1, 1-Methylethyl 4-({7-[2-fluoro-4-(methylsulfonyl)phenyl]-6,7-dihydro-5H-pyrrolo[2,3-d]pyrimidin-4-yl}oxy)-1-piperidinecarboxylate]
- incretin hormone levels (total GLP-1 and GIP) ([1]; GPR119 knock out mice): without effect
- fasting glucose levels ([1]; WT and KO mice, 60 min): not affected
- fasting insulin levels ([1]; WT and KO mice, 60 min): not affected
- incretin hormone levels (total GLP-1 and GIP) ([1]; WT mice): increase
- glucose tolerance ([2]; GPR119 KO mice, 30 mg/kg oral): no effect
- reduction of total glucose AUC ([2]; WT mice, Example 1 30 mg/kg, DPPIV inhibitor 10 mg/kg oral): 28%
- area under the glucose curve (AUC) (Male Sprague-Dawley rats): significantly reduced
- area under the insulin curve (Male Sprague-Dawley rats): significantly increased
- peak (2 minute) insulin response (Male Sprague-Dawley rats): significantly increased
- rate of glucose elimination (Male Sprague-Dawley rats): significantly increased
- glucose disposal during the oral glucose tolerance test (whole blood glucose) (male C57BL/6 mice): significantly enhanced

From patent US8222261B2, “Chemical compounds” (GlaxoSmithKline, LLC, priority 2006, dated 2012)
